Source: patent publication US10662168B2, “Compounds for treating parasitic infections” (University of Maryland, College Park, priority 2015, dated 2020)
Like-named read-outs stand apart in the source and are kept apart here.

Columns and labels:
[1] = system: intracellular forms of Leishmania (L. amazonensis amastigotes in BMDMs); test: Dose response in BMDMs infected with L. amazonensis amastigotes, released amastigotes transformed to promastigotes, AlamarBlue; format: cell-based
Procedure: (§1) FIG. 5. Dose response curves (IC50) of FX40 (∘) and the novel derivative compound FX104 (●). (A) BMDMs infected with L. amazonensis amastigotes were treated with various concentrations of the indicated compound for 72 h. BMDMs were lysed and released amastigotes were transformed to promastigotes for 48 h at 26° C. IC50 values were calculated by quantitation of % promastigote growth using AlamarBlue. (B) Dose response of uninfected BMDMs to compounds. (C) A table showing selectivity criteria for drug efficacy studies. (D) A table showing a summary of high throughput screening.
(§2) To validate the […] efficacy of lead compounds against intracellular amastigotes in macrophages, primary bone marrow-derived macrophages (BMDMs) from mice were obtained and infected them with L. amazonensis amastigotes followed by incubation for 72 h with LHR1 antagonists or amphotericin B which kills intracellular Leishmania, as a positive control. Cells were then fixed and stained with DAPI which permits visualization of the host macrophage nuclei and parasite nuclei and kinetoplasts. Images collected with fluorescent microscopy were used to determine the ratio between total number of parasites and total number of host cells per treatment. Toxicity to host cells were measured by AlamarBlue viability assays. […] (Sch. 1 and FIG. 4A) The structure of FX104 is shown in Scheme 1.

[2] = system: BMDMs; test: Toxicity to uninfected host BMDMs (AlamarBlue viability); format: cell-based, mouse; settings: even at 40-fold greater concentrations
Procedure: as §1, §2

[3] = Drug-like parameters: Log P and solubility; format: physicochemical
[4] = Drug-like parameters: absorption and metabolic stability; format: in vitro ADME
[5] = target: P-gp (Homo sapiens, UniProt P08183); test: Drug-like parameters: P-gp efflux; format: in vitro ADME
[6] = system: intracellular forms of Leishmania (L. amazonensis amastigotes in BMDMs); settings: benchmark value; read-out: IC50 against intra-macrophage L. amazonensis; cited from earlier work
[7] = system: intracellular L. donovani; settings: cited from earlier work

Sequence of P-gp (P08183 whole entry): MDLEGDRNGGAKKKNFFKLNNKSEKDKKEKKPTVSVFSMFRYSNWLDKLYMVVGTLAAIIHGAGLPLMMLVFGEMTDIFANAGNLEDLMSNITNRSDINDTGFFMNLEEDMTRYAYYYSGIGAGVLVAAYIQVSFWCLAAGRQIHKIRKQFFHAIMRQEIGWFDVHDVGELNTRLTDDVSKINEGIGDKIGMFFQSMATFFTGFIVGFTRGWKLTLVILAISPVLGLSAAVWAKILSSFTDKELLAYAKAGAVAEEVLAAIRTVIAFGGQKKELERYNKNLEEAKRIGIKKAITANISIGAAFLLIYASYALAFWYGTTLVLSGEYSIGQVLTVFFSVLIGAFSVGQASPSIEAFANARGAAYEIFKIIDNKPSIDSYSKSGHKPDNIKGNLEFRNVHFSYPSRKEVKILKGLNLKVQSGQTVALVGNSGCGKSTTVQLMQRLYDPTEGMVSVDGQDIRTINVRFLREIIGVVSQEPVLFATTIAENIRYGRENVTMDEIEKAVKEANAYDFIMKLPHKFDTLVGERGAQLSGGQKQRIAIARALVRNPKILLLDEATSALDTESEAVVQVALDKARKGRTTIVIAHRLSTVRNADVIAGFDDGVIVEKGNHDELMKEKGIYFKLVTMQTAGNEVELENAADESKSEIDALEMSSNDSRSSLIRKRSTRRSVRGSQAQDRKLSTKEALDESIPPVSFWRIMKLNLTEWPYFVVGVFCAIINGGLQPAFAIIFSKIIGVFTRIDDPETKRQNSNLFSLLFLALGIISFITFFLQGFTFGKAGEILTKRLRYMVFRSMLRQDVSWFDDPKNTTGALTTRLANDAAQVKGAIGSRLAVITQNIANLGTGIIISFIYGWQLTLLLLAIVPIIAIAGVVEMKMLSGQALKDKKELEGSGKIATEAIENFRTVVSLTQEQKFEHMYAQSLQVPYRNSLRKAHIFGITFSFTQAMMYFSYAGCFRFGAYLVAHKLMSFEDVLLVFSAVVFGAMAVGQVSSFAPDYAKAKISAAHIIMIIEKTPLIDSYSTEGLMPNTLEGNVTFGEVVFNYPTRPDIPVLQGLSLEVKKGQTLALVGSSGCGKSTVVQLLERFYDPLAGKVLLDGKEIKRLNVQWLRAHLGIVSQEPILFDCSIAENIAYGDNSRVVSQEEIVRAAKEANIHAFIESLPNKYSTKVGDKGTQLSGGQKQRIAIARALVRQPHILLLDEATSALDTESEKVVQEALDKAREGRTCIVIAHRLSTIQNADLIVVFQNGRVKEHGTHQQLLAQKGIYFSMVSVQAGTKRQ

Cc1ccc([C@]2(NCCN(C)C)OC(=O)c3cccc(F)c32)cc1C [FX104]
IC50 ([1]; BMDM, BMDMs infected with L. amazonensis amastigotes, 72 h, read-out: IC50 against intracellular forms of Leishmania): 250 nM | fold more effective against intracellular forms of Leishmania than FX40 ([1]; FX104 versus FX40): over 30 fold | toxicity in BMDMs [2]: little or no toxicity | solubility [3]: better | absorption [4]: better | metabolic stability [4]: better | P-gp efflux [5]: decreased

C[C@@H]1[C@H](O)[C@@H](C)/C=C/C=C/C=C/C=C/C=C/C=C/C=C/[C@H](O[C@@H]2O[C@H](C)[C@@H](O)[C@H](N)[C@@H]2O)C[C@@H]2O[C@](O)(C[C@@H](O)C[C@@H](O)[C@H](O)CC[C@@H](O)C[C@@H](O)CC(=O)O[C@H]1C)C[C@H](O)[C@H]2C(=O)O [Amphotericin B]
IC50 [6]: 50 to 100 nM | IC50 ([7]; benchmark value, read-out: IC50 for intra-macrophage L. donovani): 20 to 60 nM | efficacy ([7]; benchmark, intra-macrophage Leishmania): > 90%
